From BindingDB's records for patent US12473289 (Amgen, 2025) come the findings set out here.

For the assay, the target named is Acyl-CoA (8-3)-desaturase (Homo sapiens, UniProt O60427). Put plainly: Inhibitory Activity using DGLA-CoA and Arachidonyl-CoA Mass Spectrometric Assays. The method, then: Membrane preparations of D5D-overexpressing HEK293 6E cells were prepared in which the total protein concentration was 5.6 mg/mL.

Molecules are shown by their SMILES.

Chain of Acyl-CoA (8-3)-desaturase (O60427 whole entry): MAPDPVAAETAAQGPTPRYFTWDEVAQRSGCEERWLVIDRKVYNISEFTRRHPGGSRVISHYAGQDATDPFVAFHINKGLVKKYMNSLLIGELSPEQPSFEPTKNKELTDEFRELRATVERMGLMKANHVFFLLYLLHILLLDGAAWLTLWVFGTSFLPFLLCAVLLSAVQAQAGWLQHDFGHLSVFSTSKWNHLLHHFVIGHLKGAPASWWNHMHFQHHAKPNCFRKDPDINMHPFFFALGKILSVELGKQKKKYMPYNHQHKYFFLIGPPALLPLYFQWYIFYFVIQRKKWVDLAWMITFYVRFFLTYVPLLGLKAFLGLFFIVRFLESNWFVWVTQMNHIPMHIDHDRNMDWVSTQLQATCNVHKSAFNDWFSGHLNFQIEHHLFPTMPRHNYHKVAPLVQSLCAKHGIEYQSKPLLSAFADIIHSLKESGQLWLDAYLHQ

As to `COc1ccn2c(=O)c(-c3ccc(OC(F)(F)F)cc3F)c(C(F)(F)F)nc2c1` [US12473289, Example 1-9], it took 5.9 nM to reach half-maximal inhibition (IC50). Then `COc1ccn2c(=O)c(-c3cnn(-c4cccc(C(F)(F)F)c4)c3)c(C(F)(F)F)nc2c1` [US12473289, Example 1-19], with 345 nM.

As to `CSc1ccn2c(=O)c(-c3ccc(OCC(F)(F)F)cc3)c(C(F)(F)F)nc2c1` [US12473289, Example 1-35], the half-inhibitory concentration (IC50) was found to be 10.4 nM. Compared with the last molecule, the IC50 is about 33-fold lower. In turn, `COC(=O)c1ccn2c(=O)c(-c3ccc(OCC(F)(F)F)cc3)c(C(F)(F)F)nc2c1` [US12473289, Example 1-36] yielded an IC50 of 199 nM. Then `COc1ccn2c(=O)c(-c3ccc(OCC4CC4)cc3)c(C(F)(F)F)nc2n1` [US12473289, Example 1-37], with 13.1 nM; and `COc1ccn2c(=O)c(-c3ccc(OCC(F)(F)F)nc3)c(C(F)(F)F)nc2n1` [US12473289, Example 1-70], with 262 nM. `Nc1ccn2c(=O)c(-c3ccc(OCC(F)(F)F)cc3)c(C(F)(F)F)nc2c1` [US12473289, Example 6-2] returned an IC50 of 6.8 nM. On to `O=c1c(-c2cnn(CCC(F)(F)F)c2)c(C(F)(F)F)nc2cc(OCF)ccn12` [US12473289, Example 17-3], for which the IC50 came out at 29.6 nM. Compared with the last molecule, the IC50 is about 4.4-fold higher. For `O=c1ccn2c(=O)c(-c3cnn(CC(F)(F)C(F)(F)F)c3)c(C(F)(F)F)[nH]c2c1` [US12473289, Example 18], the IC50 was 132 nM. Compared with the last molecule, the IC50 is about 4.5-fold higher. The figure for `O=c1c(-c2ccc(OCC(F)(F)F)cc2)c(C(F)(F)F)nc2cc(C(F)F)ccn12` [US12473289, Example 32] is 141 nM. Molecule `COC1=CC2NC(C(F)(F)F)=C(C3C=NC(OCC(F)(F)F)=NC3)C(=O)N2C=C1` (stereo unspecified) [US12473289, Example 37] gave an IC50 of 87.6 nM. Molecule `O=C1C(C2C=NN(CC(F)(F)C(F)(F)F)C2)=C(C(F)(F)F)NC2C=C(OCF)C=CN12` (stereo unspecified) [US12473289, Example 45] registered a half-inhibitory concentration (IC50) of 10.1 nM. The figure for `O=C1C(C2C=NN(CC(F)(F)C(F)(F)F)C2)=C(C(F)(F)F)NC2C=C(OCCl)C=CN12` (stereo unspecified) [US12473289, Example 46] is 16.6 nM; for `O=C1C(C2C=NN(CC(F)(F)C(F)(F)F)C2)=C(C(F)(F)F)NC2C=C(OCF)C=NN12` (stereo unspecified) [US12473289, Example 47] it is 33.5 nM; for `O=C1C(C2C=NN(CC(F)(F)C(F)(F)F)C2)=C(C(F)(F)F)NC2C=C(OCCl)C=NN12` (stereo unspecified) [US12473289, Example 48] it is 119 nM. The figure for `COc1cc2nc(C(F)(F)F)c(-c3cnn(C[C@@H]4CC4(F)F)c3)c(=O)n2cc1F` [US12473289, Example 72] is 54.9 nM.

As a reminder, the IC50 is the point on the concentration scale where inhibition reaches its midpoint.
